Structures are written as SMILES. Where two headings read alike, the source gives them in different places.

One compound from patent US11319311B2, “Crystalline forms of Actinomycin D for treatment of cancer” (TRANSGENEX NANOBIOTECH, INC., priority 2018, dated 2022) can be followed below.

In one experiment the test system is PANC-1. In words: Monolayer cell culture IC50 (CellTiter-Glo viability), PANC-1. It counts as cell-based. Conditions: Pancreatic, PANC-1, monolayer, 72 hours treatment, average of three replications. Here is the method: (§1) Cancer cell lines listed in Table 1 were subjected for testing anti-cancer potency or the half maximal inhibitory concentration (IC50) of the D-Actinomycin (DACT) molecular complexes.
(§2) The SK-ES-1, U-2 OS, and SAOS-2 cells were cultured in a growth medium that is ATCC-formulated McCoy's 5a Medium Modified, Catalog No. 30-2007. The PC-3, PANC-1, SK-Mel-5, A549, H460, and H1299 were cultured in a growth medium that is ATCC-formulated Dulbecco's Modified Eagle's Medium (DMEM), Catalog No. 30-2002. The cells were seeded on 96-well microtiter plates with 3500 cells per well and cultured in an incubator (Model 3120, Thermo Scientific, USA) with a constant temperature at 37° C. and 5% carbon dioxide (CO2) gas for 24 hours.
(§3) The new DACT-molecular complexes were made into a series with concentration of 200 nM to 40 nM, 8 nM, 1.6 nM, 0.32 nM, and 0.064 nM. 100 μl of each solution was then added into each well to bring out the final concentration of the drug treatment at 100 nM, 20 nM, 4 nM, 0.8 nM, 0.16 nM, or 0.032 nM, respectively.
(§4) The treated cells in the 96 well plate was then further cultured at the same conditions for 72 hours and then subjected for a final cell viability measurement. The measurement used a homogeneous method to determine the number of metabolically active cells presented in each of treatments. A testing reagent for the measurement is a mixture solution of the CellTiter-Glo® 2.0 reagent (CTG, Promega Cat #G9243, USA) and growth medium in 1:1 ratio in this respect.
(§5) The 96-well plate with the new molecular complex treated cells was taken out from incubator after the 72 hours of incubation, and the treatment solution in each well was removed using a multichannel pipette, and 100 μl of the testing reagent were added into each well. The plate was then placed on a plate shaker for 15 min. The plate was covered with a piece of aluminum foil to protect the CTG luminescence during the shaking time.
(§6) Then 90 μl of the 100 μl testing reagent were transferred into an opaque-walled 96-well plate for the CTG luminescence reading on a plate reader (SynergyH4 Hybrid Reader, Biotek, USA). The luminescence intensity of each treatment was positively correlated with the number of cells survived during the treatments.
(§7) All the treatment data was normalized by comparing with the control samples that had only growth medium without any molecular complexes. The half maximal inhibitory concentration (IC50) data was calculated using the nonlinear regression model and dose-responses (inhibition) curve built in the software. Each of treatments was performed in three replications each time and repeated three times for validation. The IC50 average […] (Avg) and standard deviation (STDV) were calculated based on the three replications.
For orientation: In ATP-based viability assays light output follows the ATP content of the culture.

In a further experiment the test system is A549. In words: Monolayer cell culture IC50 (CellTiter-Glo viability), A549. It counts as cell-based. Conditions: Lung, 72 hours treatment, average of three replications. The procedure: as §1, §2, §3, §4, §5, §6, §7
The subject of the next experiment is U-2 OS. In words: Monolayer cell culture IC50 (CellTiter-Glo viability), U-2 OS. Format: cell-based. Particulars: Sarcoma, U-2 OS, monolayer, 72 hours treatment, average of three replications. Here is the method:
as §1, §2, §3, §4, §5, §6, §7

Another experiment has as its system H1299. In words: Monolayer cell culture IC50 (CellTiter-Glo viability), H1299. Format: cell-based. Particulars: Lung, 72 hours treatment, average of three replications. The procedure: as §1, §2, §3, §4, §5, §6, §7
In the next experiment the test system is PC-3. Description: Monolayer cell culture IC50 (CellTiter-Glo viability), PC-3. Format: cell-based. Conditions: Prostate, PC-3, monolayer, 72 hours treatment, average of three replications. The procedure:
as §1, §2, §3, §4, §5, §6, §7

In another experiment the test system is SK-Mel-5. Description: Monolayer cell culture IC50 (CellTiter-Glo viability), SK-Mel-5. Format: cell-based. Particulars: Skin, SK-Mel-5, monolayer, 72 hours treatment, average of three replications. Here is the method: as §1, §2, §3, §4, §5, §6, §7
Another experiment concerns SK-ES-1. Description: Monolayer cell culture IC50 (CellTiter-Glo viability), SK-ES-1. Format: cell-based, human. Conditions: Sarcoma, SK-ES-1, monolayer, 72 hours treatment, average of three replications. The procedure: as §1, §2, §3, §4, §5, §6, §7
[1] abbreviates: Test I, read-out: IC50 Test (I) Avg.
[2] abbreviates: Test II, read-out: IC50 Test (II) Avg.
Where [3] appears, read: Test III, read-out: IC50 Test (III) Avg.

For the compound `CCCOC(=O)c1ccc(O)cc1.Cc1c2oc3c(C)ccc(C(=O)NC4C(=O)NC(C(C)C)C(=O)N5CCCC5C(=O)N(C)CC(=O)N(C)C(C(C)C)C(=O)OC4C)c3nc-2c(C(=O)NC2C(=O)NC(C(C)C)C(=O)N3CCCC3C(=O)N(C)CC(=O)N(C)C(C(C)C)C(=O)OC2C)c(N)c1=O` (stereo not drawn) [DACT-propylparaben], the IC50 (commonly the point on the concentration scale where inhibition reaches its midpoint) in the experiment on PANC-1 (setting [1]) was 4.61 nM; in the experiment on PANC-1 (setting [2]), 1.71 nM; in the experiment on PANC-1 (setting [3]) it was 3.29 nM; with A549 (setting [1]) it was 1.39 nM; in the experiment with A549 (setting [2]) it was 1.74 nM; with A549 (setting [3]), 1.63 nM. Also, the half-inhibitory concentration (IC50) with U-2 OS (setting [1]) is 3.63 nM; in the experiment with U-2 OS (setting [2]), 3.85 nM; in the experiment on U-2 OS (setting [3]) it was 1.79 nM; in the experiment with H1299 (setting [1]), 1.48 nM; with H1299 (setting [2]), 0.96 nM; with H1299 (setting [3]) it was 1.05 nM. Further, the concentration for half-maximal inhibition (IC50) was 7.68 nM in the experiment on PC-3 (setting [1]); 4.52 nM in the experiment with PC-3 (setting [2]); 6.34 nM with PC-3 (setting [3]); 0.39 nM in the experiment with SK-Mel-5 (setting [1]); 0.27 nM with SK-Mel-5 (setting [2]); 2.59 nM with SK-Mel-5 (setting [3]). The IC50 in the experiment on SK-ES-1 (setting [1]) turned out to be 0.76 nM; in the experiment with SK-ES-1 (setting [2]) it was 0.34 nM; in the experiment with SK-ES-1 (setting [3]), 0.49 nM.
